Results on nine compounds are retold here after patent US9440992B2, “5,7-disubstituted thiazolo[4,5-D]pyrimidines as chemokine inhibitors” (Acturum Life Science AB, priority 2005, dated 2016).

Structures are written as SMILES.

In one test the target is T1, CX3CR1 (Homo sapiens, UniProt P49238).
T1 construct: expressed in transfected cells; host or cells: human embryonic kidney suspension (HEKS) 293 cell line stably expressing chimeric G-protein Gαqi5; membranes
T1 sequence (P49238 1-355): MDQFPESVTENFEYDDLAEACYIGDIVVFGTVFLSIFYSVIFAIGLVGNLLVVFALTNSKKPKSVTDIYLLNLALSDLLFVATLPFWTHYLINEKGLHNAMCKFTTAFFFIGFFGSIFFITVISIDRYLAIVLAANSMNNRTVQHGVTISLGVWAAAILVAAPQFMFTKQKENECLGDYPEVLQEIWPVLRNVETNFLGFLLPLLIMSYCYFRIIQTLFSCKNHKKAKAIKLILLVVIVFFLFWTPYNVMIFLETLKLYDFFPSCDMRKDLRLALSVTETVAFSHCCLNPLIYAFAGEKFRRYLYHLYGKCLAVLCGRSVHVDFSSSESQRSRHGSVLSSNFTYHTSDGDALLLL
As to the kind of experiment: [125I]-fractalkine competition receptor binding assay on hCX3CR1 membranes. Particulars: 25° C. for 24 h.

A further test has as its target T2, CXCR2 (Homo sapiens, UniProt P25025).
T2 construct: cultured under geneticin/G418 selection; membranes
T2 sequence (P25025 1-360): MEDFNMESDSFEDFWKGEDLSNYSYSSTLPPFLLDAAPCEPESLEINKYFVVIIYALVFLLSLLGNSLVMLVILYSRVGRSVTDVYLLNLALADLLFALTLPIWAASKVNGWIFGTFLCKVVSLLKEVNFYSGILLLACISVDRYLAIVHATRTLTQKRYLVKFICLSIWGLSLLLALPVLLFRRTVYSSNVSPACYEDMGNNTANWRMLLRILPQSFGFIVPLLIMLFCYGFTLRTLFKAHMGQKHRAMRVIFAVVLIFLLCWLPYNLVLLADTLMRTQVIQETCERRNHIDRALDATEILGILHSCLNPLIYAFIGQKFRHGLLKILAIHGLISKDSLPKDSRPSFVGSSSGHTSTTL
Briefly: [125I]-hIL-8 competition binding (SPA) on membranes of cells expressing human CXCR2. Particulars: receptor binding, [125I]-hIL-8, RT for 4 h. The protocol:
Recombinant human fractalkine (hCX3CL1) and recombinant human interleukin-8 (IL-8 or hCXCL8) were purchased from PeproTech Inc., UK. Recombinant [^125I]-fractalkine (human) and [^125I] hIL-8 with the specific activity of 2200 Ci/mmol, was purchased from NEN® Life Science Products, Inc., UK. Fluo4-AM was purchased from Molecular Probes, US. All other chemicals were of analytical grade.
Cells expressing human CXCR2 obtained from AstraZeneca Charnwood are cultured in EMEM containing Glutamax and supplemented with 10% FBS (from PAA, Austria), 1% non-essential amino acids (NEAA), 100 U/mL penicillin and 100 μg/mL streptomycin (PEST) and 500 μg/mL geneticin/G418.
Cells are grown at 37° C. and 5% CO2 and harvested at 60-80% confluence in buffer containing 10 mM Tris-HCl pH 7.4, 5 mM EDTA, 0.1 mg/mL bacitracin. The cells are centrifuged at 300×g for 10 min and the pellet is resuspended in harvesting buffer (10 mM Tris-HCl, pH 7.4, 5 mM ethylenediaminetetra-aceticacid (EDTA) and 0.1 mg/mL bacitracin), pooled and homogenised using a Dounce homogeniser. The homogenate is centrifuged in 48000×g for 10 min and resuspended in harvesting buffer using Ultra-Turrax T8. Membrane aliquots are stored at −80° C. Protein concentration was determined in microtiter plates as described by Harrington (1990, Anal. Biochem. 186, 285-287).
The [^125I]-hIL-8 competition binding studies are performed in singlicates in white clear bottom 96-well isoplates with a final volume of 200 μL and each well contains 150 pM [^125I]-hIL-8 (specific activity 2200 Ci/mmol), membrane-SPA preparation equivalent to 20 pM receptors and 1.5 mg SPA-beads in assay buffer [50 mM HEPES-KOH pH 7.4, 10 mM MgCl2, 1 mM EDTA, 0.5% (w/v) gelatin]. The test compounds were treated as above. The non-specific binding is determined in the presence of 500 nM unlabelled hIL-8. The agonist hIL-8 (a concentration-response curve from 3 pM to 30 nM), is used as reference compound at each test occasion. […] The binding reaction is started by addition of 140 μL membrane-SPA preparation, and the samples are incubated in dark at RT for 4 h. Assay plates are counted in a liquid scintillation counter (Wallac MicroBeta® TriLux 1450 from PerkinElmer, USA).

Source text for CX3CR1: Recombinant human fractalkine (hCX3CL1) and recombinant human interleukin-8 (IL-8 or hCXCL8) were purchased from PeproTech Inc., UK. […] Fluo4-AM was purchased from Molecular Probes, US. All other chemicals were of analytical grade.
The complete human CX3CR1 cDNA (GenBank accession number U20350) was extracted from human brain mRNA (Superscript, Life Technologies) and ligated into pCR-Blunt II TOPO vector (InVitrogen). The insert corresponding hCX3CR1 was isolated and further subcloned into pcDNA3.1zeo. Plasmid DNA was prepared using Plasmid Midi Kit (Qiagen). […] A stable clone was generated utilizing zeocin (500 μg/mL) and hygromycin (100 μg/mL) selection. For further applications the cells were maintained in Dulbecco's modified Eagle's medium/Ham's nutrient mix F12 (DMEM/F12) containing pyridoxine and supplemented with 10% (v/v) fetal bovine serum, 2 mM L-glutamine, 100 U/ml penicillin and 100 mg/ml streptomycin, 250 μg/mL zeocin and 100 μg/mL hygromycin.
Ten concentrations (2 points/log unit) of the test compounds were pre-dissolved in DMSO and added to reach a final concentration of 1% (v/v) DMSO. The assay was initiated with the addition of membranes and incubated at 25° C. for 24 h. The reactions were stopped by rapid filtration through Whatman GF/B glass fiber filters pretreated with 0.3% polyethylimine and subsequent washing with ice-cold buffer (10 mM Hepes-KOH pH 7.4, 500 mM NaCl) using a Brandel receptor binding harvester. Scintillation cocktail was addedand radioactivity was determined in a Packard 2500TR liquid scintillation counter. (Perkin Elmer, USA)

Take `CC(C)C[C@H](CO)Nc1nc(SCc2ccccc2)nc2nc(N)sc12` [reference compound]: the values for the Ki at CX3CR1 and at CXCR2 were 48 nM and 531 nM, respectively.

Turning to `CC(C)C[C@H](CO)Nc1nc(SC(C)c2ccccc2)nc2nc(N)sc12` (stereo partly drawn), the Ki – broadly, the equilibrium dissociation constant of an inhibitor or competing ligand from its target – is 3.8 nM on CX3CR1 and 3430 nM at CXCR2.

As to `CC(C)C[C@H](CO)Nc1nc(S[C@@H](C)c2cccc(C#N)c2)nc2nc(N)sc12`, the Ki on CX3CR1 turned out to be 14 nM; on CXCR2 it was 4210 nM.

Consider `CC(C)C[C@H](CO)Nc1nc(SC(C)c2ccccc2Cl)nc2nc(N)sc12` (stereo partly drawn), for which the Ki at CX3CR1 came out at 5.9 nM; on CXCR2, 5650 nM.

On to `CC(C)C[C@H](CO)Nc1nc(SCc2cccc(C#N)c2)nc2nc(N)sc12` [reference compound], for which the Ki at CX3CR1 amounted to 156 nM; at CXCR2, 1980 nM.

On to `CCC[C@H](CO)Nc1nc(S[C@@H](C)c2ccccc2)nc2nc(N)sc12`, for which the inhibitory constant (Ki) is 52 nM on CX3CR1 and 1140 nM at CXCR2.

`CCC[C@H](CO)Nc1nc(SCc2ccccc2)nc2nc(N)sc12` [reference compound]: the Ki on CX3CR1 was determined as 592 nM; at CXCR2, 540 nM.

As for `CC(C)C[C@H](CO)Nc1nc(SCc2ccccc2Cl)nc2nc(N)sc12` [reference compound], the Ki stood at 51 nM at CX3CR1 and 1810 nM on CXCR2.

`CCC(Sc1nc(N[C@@H](CO)CC(C)C)c2sc(N)nc2n1)c1ccccc1` (stereo partly drawn): the Ki worked out at 3.1 nM at CX3CR1 and 2760 nM on CXCR2.
